Laboratory results published in PubChem BioAssay AID1259407 (Chemical Carcinogenesis Research Information System (CCRIS), 2018).
The source made the active and inactive calls. No rule for the calls is given here.

Tested on: CCRIS mutagenicity, Ames/micronucleus/aberration tests
Experiment: CCRIS mutagenicity studies
[1] = Test System: AMES SALMONELLA TYPHIMURIUM, Strain/Indicator: TA100, Metabolic Activation: NONE, Method: STANDARD PLATE
[2] = Test System: AMES SALMONELLA TYPHIMURIUM, Strain/Indicator: TA98, Metabolic Activation: NONE, Method: PREINCUBATION
[3] = Test System: AMES SALMONELLA TYPHIMURIUM, Strain/Indicator: TA100, Metabolic Activation: NONE, Method: PREINCUBATION
[4] = Test System: AMES SALMONELLA TYPHIMURIUM, Strain/Indicator: TA100, Metabolic Activation: RAT, LIVER, S-9, AROCLOR 1254, Method: PREINCUBATION
[5] = Test System: AMES SALMONELLA TYPHIMURIUM, Strain/Indicator: TA98, Metabolic Activation: NONE, Method: STANDARD PLATE
[6] = Test System: AMES SALMONELLA TYPHIMURIUM, Strain/Indicator: TA98, Metabolic Activation: RAT, LIVER, S-9, AROCLOR 1254, Method: STANDARD PLATE
[7] = Test System: AMES SALMONELLA TYPHIMURIUM, Strain/Indicator: TA1535, Metabolic Activation: NONE, Method: STANDARD PLATE
[8] = Test System: AMES SALMONELLA TYPHIMURIUM, Strain/Indicator: TA1535, Metabolic Activation: NONE, Method: PREINCUBATION

## NCCCCC(N)C(=O)O (stereo not given)
Test System: AMES SALMONELLA TYPHIMURIUM, Strain/Indicator: TA98, Metabolic Activation: RAT LIVER S-9, CHLOROPHENE, Method: STANDARD PLATE (COMPOUND HEATED AT 250 DEGREES CELSIUS FOR 20 MIN)
  mutagenic call: active; positive

## c1cc2c3oc3cc3ccc4c5oc5cc1c4c32
[1]
  mutagenic call: active; positive

## Cc1cnc2ccccc2n1
[2]
  mutagenic call: inactive; negative
Test System: AMES SALMONELLA TYPHIMURIUM, Strain/Indicator: TA98, Metabolic Activation: RAT, LIVER, S-9, AROCLOR 1254, Method: PREINCUBATION
  mutagenic call: inactive; negative
[3]
  mutagenic call: inactive; negative
[4]
  mutagenic call: inactive; negative
Test System: AMES SALMONELLA TYPHIMURIUM, Strain/Indicator: TA102, Metabolic Activation: NONE, Method: PREINCUBATION
  mutagenic call: inactive; negative
Test System: AMES SALMONELLA TYPHIMURIUM, Strain/Indicator: TA102, Metabolic Activation: RAT, LIVER, S-9, AROCLOR 1254, Method: PREINCUBATION
  mutagenic call: inactive; negative

## COC/C(=C/c1ccccc1)OC
Test System: AMES SALMONELLA TYPHIMURIUM, Strain/Indicator: TA97, Metabolic Activation: NONE, Method: STANDARD PLATE
  mutagenic call: inactive; negative
Test System: AMES SALMONELLA TYPHIMURIUM, Strain/Indicator: TA97, Metabolic Activation: RAT, LIVER, S-9, AROCLOR 1254, Method: STANDARD PLATE
  mutagenic call: inactive; negative
[5]
  mutagenic call: inactive; negative
[6]
  mutagenic call: inactive; negative
[1]
  mutagenic call: inactive; negative
Test System: AMES SALMONELLA TYPHIMURIUM, Strain/Indicator: TA100, Metabolic Activation: RAT, LIVER, S-9, AROCLOR 1254, Method: STANDARD PLATE
  mutagenic call: inactive; negative
[7]
  mutagenic call: inactive; negative
Test System: AMES SALMONELLA TYPHIMURIUM, Strain/Indicator: TA1535, Metabolic Activation: RAT, LIVER, S-9, AROCLOR 1254, Method: STANDARD PLATE
  mutagenic call: inactive; negative
Test System: AMES SALMONELLA TYPHIMURIUM, Strain/Indicator: TA1537, Metabolic Activation: NONE, Method: STANDARD PLATE
  mutagenic call: active; positive
Test System: AMES SALMONELLA TYPHIMURIUM, Strain/Indicator: TA1537, Metabolic Activation: RAT, LIVER, S-9, AROCLOR 1254, Method: STANDARD PLATE
  mutagenic call: inactive; negative
Test System: AMES SALMONELLA TYPHIMURIUM, Strain/Indicator: TA1538, Metabolic Activation: NONE, Method: STANDARD PLATE
  mutagenic call: inactive; negative
Test System: AMES SALMONELLA TYPHIMURIUM, Strain/Indicator: TA1538, Metabolic Activation: RAT, LIVER, S-9, AROCLOR 1254, Method: STANDARD PLATE
  mutagenic call: inactive; negative

## COc1c(O)c(OC)c(Cl)c(Cl)c1Cl
Test System: CHINESE HAMSTER V-79, Strain/Indicator: V-79/6-THIOGUANINE, Metabolic Activation: NONE, Method: STANDARD PLATE
  mutagenic call: inactive; negative

## C=C(C)C(=O)/C(=C\C(=O)O)OC
[5]
  mutagenic call: inactive; negative
Test System: AMES SALMONELLA TYPHIMURIUM, Strain/Indicator: TA98, Metabolic Activation: RAT LIVER S-9, DELOREM 103, Method: STANDARD PLATE
  mutagenic call: inactive; negative
Test System: AMES SALMONELLA TYPHIMURIUM, Strain/Indicator: TA98, Metabolic Activation: RAT, LIVER, MICROSOMES, PHENOBARBITAL, Method: STANDARD PLATE
  mutagenic call: inactive; negative
[3]
  mutagenic call: inactive; negative
[1]
  mutagenic call: inactive; negative
Test System: AMES SALMONELLA TYPHIMURIUM, Strain/Indicator: TA100, Metabolic Activation: RAT LIVER S-9, DELOREM 103, Method: STANDARD PLATE
  mutagenic call: inactive; negative
Test System: AMES SALMONELLA TYPHIMURIUM, Strain/Indicator: TA100, Metabolic Activation: RAT, LIVER, MICROSOMES, PHENOBARBITAL, Method: STANDARD PLATE
  mutagenic call: inactive; negative
Test System: AMES SALMONELLA TYPHIMURIUM, Strain/Indicator: TA100, Metabolic Activation: RAT, LIVER, S-9, PHENOBARBITAL, Method: PREINCUBATION
  mutagenic call: inactive; negative

## Fc1cc(F)c2ncccc2c1F
Test System: AMES SALMONELLA TYPHIMURIUM, Strain/Indicator: TA100, Metabolic Activation: RAT LIVER S-9, PHENOBARBITAL AND 5,6-BENZOFLAVONE, Method: PREINCUBATION
  mutagenic call: active; positive

## c1ccc(-c2nc(-c3ccccc3)c(-c3ccccc3)[nH]2)cc1
[5]
  mutagenic call: active; positive
Test System: AMES SALMONELLA TYPHIMURIUM, Strain/Indicator: TA98, Metabolic Activation: RAT LIVER S-9, 3-METHYLCHOLANTHRENE, SODIUM PHENOBARBITAL, Method: STANDARD PLATE
  mutagenic call: inactive; negative
[1]
  mutagenic call: active; positive
Test System: AMES SALMONELLA TYPHIMURIUM, Strain/Indicator: TA100, Metabolic Activation: RAT LIVER S-9, 3-METHYLCHOLANTHRENE, SODIUM PHENOBARBITAL, Method: STANDARD PLATE
  mutagenic call: inactive; negative

## O=C(O)Cc1ccc([N+](=O)[O-])cc1
[2]
  mutagenic call: active; positive
[3]
  mutagenic call: active; positive
[8]
  mutagenic call: inactive; negative
Test System: AMES SALMONELLA TYPHIMURIUM, Strain/Indicator: TA1537, Metabolic Activation: NONE, Method: PREINCUBATION
  mutagenic call: inactive; negative
Test System: AMES SALMONELLA TYPHIMURIUM, Strain/Indicator: TA1538, Metabolic Activation: NONE, Method: PREINCUBATION
  mutagenic call: inactive; negative

## O[C@H]1[C@H]2O[C@H]2c2c(ccc3c4c5c(cccc5cc23)C=C4)[C@@H]1O
[5]
  mutagenic call: active; positive
Test System: AMES SALMONELLA TYPHIMURIUM, Strain/Indicator: TA98, Metabolic Activation: RAT, LIVER, S-9, AROCLOR 1254 (0.4, 0.8, 1.15 OR 1.5 MG/PLATE), Method: STANDARD PLATE
  mutagenic call: active; positive
[6]
  mutagenic call: active; positive

## CCN=[N+](C)[O-]
Test System: AMES SALMONELLA TYPHIMURIUM, Strain/Indicator: TA1535, Metabolic Activation: HAMSTER, LIVER, S-9, AROCLOR 1254, Method: PREINCUBATION
  mutagenic call: inactive; negative
[8]
  mutagenic call: inactive; negative
Test System: AMES SALMONELLA TYPHIMURIUM, Strain/Indicator: TA1535, Metabolic Activation: RAT, LIVER, S-9, AROCLOR 1254, Method: PREINCUBATION
  mutagenic call: inactive; negative

## CC(=O)N(O)c1ccc(Sc2ccccc2)cc1
[5]
  mutagenic call: active; positive
[6]
  mutagenic call: active; positive

## CC(C)C(=O)Nc1snc2cc(Cl)ccc12
[1]
  mutagenic call: inactive; negative
Test System: AMES SALMONELLA TYPHIMURIUM, Strain/Indicator: TA100, Metabolic Activation: S-9, Method: STANDARD PLATE
  mutagenic call: inactive; negative

## CC(C)CN(N=O)/C(N)=N/[N+](=O)[O-]
Test System: AMES SALMONELLA TYPHIMURIUM, Strain/Indicator: TA100, Metabolic Activation: RAT, LIVER, S-9, KC500 OR PHENOBARBITAL, Method: LIQUID SUSPENSION
  mutagenic call: active; positive
[7]
  mutagenic call: active; positive
Test System: AMES SALMONELLA TYPHIMURIUM, Strain/Indicator: TA1535, Metabolic Activation: RAT, LIVER, S-9, KC500 OR PHENOBARBITAL, Method: LIQUID SUSPENSION
  mutagenic call: active; positive

## O=C(OCc1ccccc1[N+](=O)[O-])c1ccccc1
[2]
  mutagenic call: inactive; negative
[3]
  mutagenic call: inactive; negative
[4]
  mutagenic call: inactive; negative
